Data reported in patent US9029370B2, “Substituted benzamide derivatives” (Hoffmann-La Roche Inc., priority 2011, dated 2015).
Counter-ions that a name gives are not always drawn.

Assays:
[1] = target: rat TAAR1 (Rattus norvegicus (Rat), UniProt Q923Y9); test: Radioligand binding assay on rat TAAR1; conditions: rat TAAR1, HEK-293 membranes; second value of the pair (line below); read-out: Ki (μM) mouse/rat
Protocol: (§1) For the construction of expression plasmids the coding sequences of human, rat and mouse TAAR 1 were amplified from genomic DNA essentially as described by Lindemann et al.. The Expand High Fidelity PCR System (Roche Diagnostics) was used with 1.5 mM Mg^2+ and purified PCR products were cloned into pCR2.1-TOPO cloning vector (Invitrogen) following the instructions of the manufacturer. PCR products were subcloned into the pIRESneo2 vector (BD Clontech, Palo Alto, Calif.), and expression vectors were sequence verified before introduction in cell lines.
(§2) HEK293 cells (ATCC # CRL-1573) were cultured essentially as described by Lindemann et al. (2005). For the generation of stably transfected cell lines HEK293 cells were transfected with the pIRESneo2 expression plasmids containing the TAAR coding sequences (described above) with Lipofectamine 2000 (Invitrogen) according to the instructions of the manufacturer, and 24 hrs post transfection the culture medium was supplemented with 1 mg/ml G418 (Sigma, Buchs, Switzerland). After a culture period of about 10 d clones were isolated, expanded and tested for responsiveness to trace amines (all compounds purchased from Sigma) with the cAMP Biotrak Enzyme immunoassay (EIA) System (Amersham) following the non-acetylation EIA procedure provided by the manufacturer.
Radioligand Binding Assay on Rat TAAR1
(§3) Membrane Preparation and Radioligand Binding.
(§4) HEK-293 cells stably expressing rat TAAR1 were maintained at 37° C. and 5% CO2 in DMEM high glucose medium, containing fetal calf serum (10%, heat inactivated for 30 min at 56° C.), penicillin/streptomycin (1%), and 375 μg/ml geneticin (Gibco). Cells were released from culture flasks using trypsin/EDTA, harvested, washed twice with ice-cold PBS (without Ca^2+ and Mg^2+), pelleted at 1′000 rpm for 5 min at 4° C., frozen and stored at −80° C. […] The homogenate was centrifuged at 48′000×g for 30 min at 4° C. Subsequently, the supernatant was removed and discarded, and the pellet resuspended in 20 ml HEPES-NaOH (20 mM, pH 7.4) containing 0.1 mM EDTA using the Polytron (20 s at 14′000 rpm). This procedure was repeated and the final pellet resuspended in HEPES-NaOH containing 0.1 mM EDTA and homogenized using the Polytron. Typically, aliquots of 2 ml membrane portions were stored at −80° C. With each new membrane batch the dissociation constant (Kd) was determined via a saturation curve. […] Nonspecific binding was defined as the amount of ^3[H]-(S)-4-[(ethyl-phenyl-amino)-methyl]-4,5-dihydro-oxazol-2-ylamine bound in the presence of 10 μM unlabeled ligand. All compounds were tested at a broad range of concentrations (10 pM to 10 μM) in duplicates. […] The 96 deep well plates were incubated for 1 hr at 4° C. Incubations were terminated by rapid filtration through Unifilter-96 plates (Packard Instrument Company) and glass filters GF/C (Perkin Elmer) presoaked for 1 hr in polyethylenimine (0.3%) and washed 3 times with 1 ml of cold binding buffer. After addition of 45 μl of Microscint 40 (PerkinElmer) the Unifilter-96 plate was sealed and after 1 hr the ratioactivity counted using a TopCount Microplate Scintillation Counter (Packard Instrument Company).

[2] = target: mouse TAAR1 (Mus musculus (Mouse), UniProt Q923Y8); test: Radioligand binding assay on mouse TAAR1; conditions: mouse TAAR1, HEK-293 membranes; first value of the pair (before the slash); read-out: Ki (μM) mouse/rat
Protocol: as §1, §2
Radioligand Binding Assay on Mouse TAAR1
as §3
as §4, with “expressing mouse” for “expressing rat”

Chain of mouse TAAR1 (Q923Y8 whole entry): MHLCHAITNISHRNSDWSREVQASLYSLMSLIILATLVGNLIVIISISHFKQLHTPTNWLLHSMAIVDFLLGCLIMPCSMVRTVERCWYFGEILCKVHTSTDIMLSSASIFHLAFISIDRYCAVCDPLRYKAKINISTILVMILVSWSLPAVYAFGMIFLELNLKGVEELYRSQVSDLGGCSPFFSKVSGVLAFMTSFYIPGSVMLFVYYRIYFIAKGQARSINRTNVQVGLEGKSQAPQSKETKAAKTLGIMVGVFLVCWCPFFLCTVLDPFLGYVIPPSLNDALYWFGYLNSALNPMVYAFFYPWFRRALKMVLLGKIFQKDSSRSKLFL
Chain of rat TAAR1 (Q923Y9 whole entry): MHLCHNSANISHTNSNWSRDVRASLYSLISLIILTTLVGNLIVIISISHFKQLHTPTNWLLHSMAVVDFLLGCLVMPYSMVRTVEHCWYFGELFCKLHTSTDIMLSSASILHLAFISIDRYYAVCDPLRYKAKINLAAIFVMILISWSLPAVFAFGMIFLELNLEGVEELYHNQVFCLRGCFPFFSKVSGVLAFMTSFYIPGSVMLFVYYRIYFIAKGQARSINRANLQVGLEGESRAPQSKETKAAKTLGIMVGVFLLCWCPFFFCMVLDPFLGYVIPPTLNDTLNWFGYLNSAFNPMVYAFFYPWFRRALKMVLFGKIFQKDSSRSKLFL

Compound | Ki [1] [µM] | Ki [2] [µM]
O=C(Nc1cnc(C(F)(F)F)nc1)Nc1ccc([C@@H]2CNCCO2)cc1Br [Example 70, 1-((R)-2-Bromo-4-morpholin-2-yl-phenyl)-3-(2-trifluoromethyl-pyrimidin-5-yl)-urea] | 0.0103 | 0.0056
N#Cc1ccc(OC(F)F)c(NC(=O)Nc2ccc([C@H]3CNCCO3)cc2Cl)c1 [Example 48, (S)-1-(2-Chloro-4-(morpholin-2-yl)phenyl)-3-(5-cyano-2-(difluoromethoxy)phenyl)urea] | 0.0018 | 0.0022
O=C(Nc1ccc(Cl)cn1)Nc1ccc([C@H]2CNCCO2)cc1Cl [Example 64, (S)-1-(2-Chloro-4-(morpholin-2-yl)phenyl)-3-(5-chloropyridin-2-yl)urea] | 0.003 | 0.0015
CCOc1ccc(C(=O)Nc2ccc([C@H]3CNCCO3)c(F)c2)cn1 [Example 89, (S)-6-Ethoxy-N-(3-fluoro-4-(morpholin-2-yl)phenyl)nicotinamide hydrochloride] | 0.0254 | 0.0024
Cc1cc(C(=O)Nc2ccc([C@H]3CNCCO3)cc2F)cc(C#N)n1 [Example 113, (S)-2-Cyano-N-(2-fluoro-4-(morpholin-2-yl)phenyl)-6-methylisonicotinamide hydrochloride] | 0.0654 | 0.0481
N#Cc1cccc(NC(=O)Nc2ccc([C@H]3CNCCO3)cc2F)c1 [Example 4, 1-(3-Cyano-phenyl)-3-((S)-2-fluoro-4-morpholin-2-yl-phenyl)-urea] | 0.0028 | 0.0017
COc1cc(C(=O)Nc2ccc([C@H]3CNCCO3)cc2F)cc(C#N)n1 [Example 121, (S)-2-Cyano-N-(2-fluoro-4-(morpholin-2-yl)phenyl)-6-methoxyisonicotinamide hydrochloride] | 0.0158 | 0.0145
Cc1cc([C@@H]2CNCCO2)ccc1NC(=O)Nc1ccc(Cl)nc1 [Example 40, (R)-1-(6-Chloropyridin-3-yl)-3-(2-methyl-4-(morpholin-2-yl)phenyl)urea] | 0.12 | 0.0043
O=C(Nc1ccc([C@H]2CNCCO2)cc1Cl)c1ccn(-c2ccc(F)cc2)n1 [Example 29, (S)—N-(2-Chloro-4-(morpholin-2-yl)phenyl)-1-(4-fluorophenyl)-1H-pyrazole-3-carboxamide] | 0.0036 | 0.0017
Cc1cc(C(=O)Nc2ccc([C@H]3CNCCO3)cc2Cl)cc(C#N)n1 [Example 123, (S)—N-(2-Chloro-4-(morpholin-2-yl)phenyl)-2-cyano-6-methylisonicotinamide hydrochloride] | 0.0474 | 0.0413
O=C(Nc1cnc(C(F)(F)F)nc1)Nc1ccc([C@H]2CNCCO2)cc1Br [Example 69, 1-((S)-2-Bromo-4-morpholin-2-yl-phenyl)-3-(2-trifluoromethyl-pyrimidin-5-yl)-urea] | 0.018 | 0.0086
Cc1cc(C(=O)Nc2ccc([C@H]3CNCCO3)cc2Cl)cc(C(N)=O)n1 [Example 122, (S)—N4-(2-Chloro-4-(morpholin-2-yl)phenyl)-6-methylpyridine-2,4-dicarboxamide hydrochloride] | 0.758 | 0.14
O=C(Nc1ccc([C@@H]2CNCCO2)c(F)c1)c1cnn(-c2ccc(OC(F)F)cc2)c1 [Example 86, (R)-1-(4-(Difluoromethoxy)phenyl)-N-(3-fluoro-4-(morpholin-2-yl)phenyl)-1H-pyrazole-4-carboxamide hydrochloride] | 0.0007 | 0.0023
N#Cc1cc(F)cc(NC(=O)Nc2ccc([C@H]3CNCCO3)cc2F)c1 [Example 26, 1-(3-Cyano-5-fluoro-phenyl)-3-((S)-2-fluoro-4-morpholin-2-yl-phenyl)-urea] | 0.002 | 0.0012
O=C(Nc1ccc(C2CCCNC2)cc1Cl)c1ccc(Cl)nc1 (racemic) [Example 43, (RS)-6-Chloro-N-(2-chloro-4-piperidin-3-yl-phenyl)-nicotinamide] | 0.367 | 0.0164
N#Cc1cccc(NC(=O)Nc2ccc([C@@H]3CNCCO3)cc2F)c1 [Example 3, 1-(3-Cyano-phenyl)-3-((R)-2-fluoro-4-morpholin-2-yl-phenyl)-urea] | 0.0015 | 0.0016
N#Cc1ccc(NC(=O)Nc2ccc([C@H]3CNCCO3)cc2Br)cn1 [Example 66, (S)-1-(2-bromo-4-(morpholin-2-yl)phenyl)-3-(6-cyanopyridin-3-yl)urea] | 0.0161 | 0.0033
N#Cc1ccc(NC(=O)Nc2ccc([C@@H]3CNCCO3)cc2Br)cn1 [Example 65, (R)-1-(2-bromo-4-(morpholin-2-yl)phenyl)-3-(6-cyanopyridin-3-yl)urea] | 0.0218 | 0.0037
O=C(Nc1cnc(C(F)(F)F)nc1)Nc1ccc([C@H]2CNCCO2)cc1Cl [Example 51] | 0.0126 | 0.0067
COc1cc(C(=O)Nc2ccc([C@H]3CNCCO3)cc2Cl)cc(C#N)n1 [Example 124, (S)—N-(2-Chloro-4-(morpholin-2-yl)phenyl)-2-cyano-6-methoxyisonicotinamide hydrochloride] | 0.0231 | 0.0235
N#Cc1ccc(-n2cc(C(=O)Nc3ccc([C@H]4CNCCO4)c(F)c3)cn2)c(F)c1 [Example 108, (S)-1-(4-Cyano-2-fluorophenyl)-N-(3-fluoro-4-(morpholin-2-yl)phenyl)-1H-pyrazole-4-carboxamide hydrochloride] | 0.0059 | 0.0054
O=C(Nc1ccc(C(F)(F)F)nc1)Nc1ccc([C@@H]2CNCCO2)cc1Cl [Example 49, (R)-1-(2-Chloro-4-(morpholin-2-yl)phenyl)-3-(6-(trifluoromethyl)pyridin-3-yl)urea] | 0.0015 | 0.0021
O=C(Nc1ccc([C@H]2CNCCO2)cc1F)c1cnn(-c2ccc3c(c2)OC(F)(F)O3)c1 [Example 82, (S)-1-(2,2-Difluorobenzo[d][1,3]dioxol-5-yl)-N-(2-fluoro-4-(morpholin-2-yl)phenyl)-1H-pyrazole-4-carboxamide] | 0.0016 | 0.0013
N#Cc1ccc(-n2cc(C(=O)Nc3ccc([C@H]4CNCCO4)cc3Cl)cn2)cc1 [Example 103, (S)—N-(2-Chloro-4-(morpholin-2-yl)phenyl)-1-(4-cyanophenyl)-1H-pyrazole-4-carboxamide hydrochloride] | 0.0031 | 0.0052
N#Cc1cc(NC(=O)Nc2ccc([C@@H]3CNCCO3)cc2F)ccc1F [Example 63, (R)-1-(3-Cyano-4-fluorophenyl)-3-(2-fluoro-4-(morpholin-2-yl)phenyl)urea] | 0.0007 | 0.0014
